Test results reported in patent publication US20250099448A1, “HETEROCYCLIC COMPOUNDS” (Hoffmann-La Roche Inc., priority 2022, published 2025).

target: T1, MAGL protein (Homo sapiens, UniProt Q99685); assay: 2-AG assay: MAGL inhibitory activity by hydrolysis of 2-arachidonoylglycerol to arachidonic acid, followed by mass spectrometry; type: biochemical; details: 8 μM 2-arachidonoylglycerol, 15 min preincubation, 30 min reaction at RT, RapidFire MS readout
T1 sequence (Q99685 1-303): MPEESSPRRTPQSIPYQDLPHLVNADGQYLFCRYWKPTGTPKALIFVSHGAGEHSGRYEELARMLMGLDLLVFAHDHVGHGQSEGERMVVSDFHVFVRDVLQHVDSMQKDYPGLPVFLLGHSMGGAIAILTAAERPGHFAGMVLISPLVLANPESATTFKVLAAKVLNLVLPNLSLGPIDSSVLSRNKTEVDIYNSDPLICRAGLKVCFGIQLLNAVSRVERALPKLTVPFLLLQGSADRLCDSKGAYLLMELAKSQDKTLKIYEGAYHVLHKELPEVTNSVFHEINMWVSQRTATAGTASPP
Summary of the method: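 MAGL was preincubated 15 min at RT with compound (12.5 to […], 3-fold steps) in 50 mM TRIS, 1 mM EDTA, 0.01% Tween-20, 2.5% DMSO. The reaction ran 30 min at RT with 8 μM 2-AG. Arachidonic acid was quantified by RapidFire SPE-MS/MS against a d8-arachidonic acid internal standard.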

SMILES	IC50
CS(=O)(=O)C1(c2ccc(C3CN(C(=O)N4CC5(CC(c6nc(C7(O)CC7)n[nH]6)C5)C4)C3)cc2)CC1 [compound 790]	9.68 nM
CC(C)(C)c1noc(CN2CC3(C2)CN(C(=O)N2CC4(CC(c5nnc(C6CC6)[nH]5)C4)C2)C3)n1 [compound 886]	6.38 nM
O=C(N1CC2(CC(c3nnc(C4CCC4)[nH]3)C2)C1)N1CC2(CN(Cc3ccc(F)cc3F)C2)C1 [Example 158, [6-(5-cyclobutyl-4H-1,2,4-triazol-3 yl)-2-azaspiro[3.3]heptan-2-yl]-[6-[(2,4-difluorophenyl)methyl]-2,6-diazaspiro[3.3]heptan-2-yl]methanone]	150 nM
O=C(N1CC(C23CC(Oc4cnc(C(F)(F)F)cn4)(C2)C3)C1)N1CC2(CC(c3nc(C4CC4)n[nH]3)C2)C1 [compound 707]	2.44 nM
O=C(N1CC2(CC(c3nc(C4CC4)n[nH]3)C2)C1)N1CC2(CN(Cc3ccnn3C(F)(F)F)C2)C1 [compound 656]	39.7 nM
Cn1nc(CN2CC3(C2)CN(C(=O)N2CC4(CC(c5nc(C6CC6)n[nH]5)C4)C2)C3)cc1C(F)(F)F [compound 681]	7.41 nM
O=C(N1CCC(OCc2ccc(OC(F)(F)F)cc2F)CC1)N1CC2(CC(c3nc(C4CC4)n[nH]3)C2)C1 [compound 905]	5.92 nM
O=C(N1CC(C23CC(Cc4ccc(C(F)(F)F)cc4F)(C2)C3)C1)N1CC2(CC(c3nc(C4(O)CC4)n[nH]3)C2)C1 [compound 438]	3.46 nM
CS(=O)(=O)c1cc(C(F)(F)F)ccc1OCC1CCN(C(=O)N2CC3(CC(c4nc(C5(O)CC5)n[nH]4)C3)C2)CC1 [Example 919, [6-[3-(1-hydroxycyclopropyl)-1H-1,2,4-triazol-5-yl]-2-azaspiro[3.3]heptan-2-yl]-[4-[[2-mesyl-4-(trifluoromethyl)phenoxy]methyl]piperidino]methanone]	1200 nM
O=C(N1CC2(CC(c3nc(C4CC(F)(F)C4)n[nH]3)C2)C1)N1CC2(CN(Cc3ncc(C(F)(F)F)s3)C2)C1 [compound 596]	357 nM
O=C(N1CC2(CC(Cn3nccc3C(F)(F)F)C2)C1)N1CC2(CC(c3nc(C4(O)CC4)n[nH]3)C2)C1 [compound 796]	1.17 nM
O=C(N1CC2(CC(Cc3cnn(C(F)(F)F)c3)C2)C1)N1CC2(CC(c3nc(C4(O)CC4)n[nH]3)C2)C1 [compound 727]	2.68 nM
O=C(N1CC2(CC(Cc3ccc(C(F)(F)F)cc3F)C2)C1)N1CC2(CC(c3nnc(C4CC4)[nH]3)C2)C1 [compound 37]	0.01 nM
O=C(N1CC(c2ccc(N3CCC4(COC4)C3)nc2)C1)N1CC2(CC(c3nnc(C4CC4)[nH]3)C2)C1 [Example 303, [6-(5-cyclopropyl-4H-1,2,4-triazol-3-yl)-2-azaspiro[3.3]heptan-2-yl]-[3-[6-(2-oxa-7-azaspiro[3.4]octan-7 yl)-3-pyridyl]azetidin-1-yl]methanone]	6.31 nM
Cc1onc(C2CC2)c1CN1CC2(C1)CN(C(=O)N1CC3(CC(c4nc(C5CC5)n[nH]4)C3)C1)C2 [compound 686]	14.2 nM
COC(=O)c1ccccc1CN1CC2(C1)CN(C(=O)N1CC3(CC(c4nnc(C5CC5)[nH]4)C3)C1)C2 [Example 171, methyl 2-[[2-[6-(5-cyclopropyl-4H-1,2,4-triazol-3-yl)-2-azaspiro[3.3]heptane-2-carbonyl]-2,6-diazaspiro[3.3]heptan-6-yl]methyl]benzoate]	9.21 nM
O=C(N1CC2(CC(c3nc(C4CC4)n[nH]3)C2)C1)N1CC2(CN(Cc3nnnn3CC(F)(F)F)C2)C1 [compound 521]	78.6 nM
Cc1ncsc1CN1CCN(C(=O)N2CC3(CC(c4nc(C5CC5)n[nH]4)C3)C2)CC1 [Example 880, [6-(3-cyclopropyl-1H-1,2,4-triazol-5-yl)-2-azaspiro[3.3]heptan-2-yl]-[4-[(4-methylthiazol-5-yl)methyl]piperazino]methanone]	832 nM
O=C(N1CC2(CCN(c3ccc(Cl)cc3F)CC2)C1)N1CC2(CC(c3nnc(C4CC4)[nH]3)C2)C1 [compound 283]	0.88 nM
O=C(N1CC2(CC(c3nc(C4CC4)n[nH]3)C2)C1)N1CC2(CN(Cc3cc(C(F)(F)F)sn3)C2)C1 [compound 675]	8.76 nM
CS(=O)(=O)c1ccc(CC2CC3(C2)CN(C(=O)N2CC4(CC(c5nc(C(F)(F)F)n[nH]5)C4)C2)C3)cc1 [compound 791]	17.6 nM
O=C(N1CC(c2cnc(N3CC[C@H](C(F)(F)F)C3)nc2)C1)N1CC2(CC(c3nc(C4CC4)n[nH]3)C2)C1 [compound 708]	2.63 nM
O=C(N1CC(c2ccc(Oc3ccccc3Cl)nc2)C1)N1CC2(CC(c3nnc(C4(O)CC4)[nH]3)C2)C1 [compound 374]	1.61 nM
O=C(N1CC2(CC(c3nc(C4(O)CC4)n[nH]3)C2)C1)N1CC2(CC(C(F)(F)c3ccc(C(F)(F)F)nn3)C2)C1 [compound 448]	8.2 nM
CNc1ccc(C(=O)N2CCN(C(=O)N3CC4(CC(c5nnc(C6CC6)[nH]5)C4)C3)CC2)cc1 [Example 871, [4-[6-(5-cyclopropyl-4H-1,2,4-triazol-3-yl)-2-azaspiro[3.3]heptane-2-carbonyl]piperazino]-[4-(methylamino)phenyl]methanone]	342 nM

SMILES	IC50
O=C(NC1(C(F)(F)F)CC1)C1CC2(C1)CN(C(=O)N1CC3(CC(c4nnc(C5CC5)[nH]4)C3)C1)C2 [compound 72]	157 nM
O=C(N1CCC(C23CC(c4nnc(C5(C(F)(F)F)CC5)o4)(C2)C3)CC1)N1CC2(CC(c3nc(C4CC4)n[nH]3)C2)C1 [compound 418]	192 nM
O=C(N1CC(C23CC(Cn4ccc(C(F)(F)F)cc4=O)(C2)C3)C1)N1CC2(CC(c3nc(C4CC4)n[nH]3)C2)C1 [compound 947]	9.12 nM
NC(=O)[C@H]1CCCN1c1ccc(C2CN(C(=O)N3CC4(CC(c5nnc(C6CC6)[nH]5)C4)C3)C2)cc1 [Example 398, (2R)-1 [4-[1-[6-(5-cyclopropyl-4H-1,2,4-triazol-3-yl)-2-azaspiro[3.3]heptane-2-carbonyl]azetidin-3-yl]phenyl]pyrrolidine-2-carboxamide]	2.4 nM
CC(C)(O)Cn1nc(C2CCN(C(=O)N3CC4(CC(c5nnc(C6CC6)[nH]5)C4)C3)CC2)c2cc(Cl)ccc21 [Example 416, [4-[5-chloro-1-(2-hydroxy-2-methyl-propyl)indazol-3-yl]piperidino]-[6-(5-cyclopropyl-4H-1,2,4-triazol-3-yl)-2-azaspiro[3.3]heptan-2-yl]methanone]	13.3 nM
O=C(N1CC2(CC(Cn3ccc(C4CC4)n3)C2)C1)N1CC2(CC(c3nc(C4CC4)n[nH]3)C2)C1 [compound 822]	0.88 nM
O=C(N1CC2(CC(Cn3cc(CC(F)(F)F)cn3)C2)C1)N1CC2(CC(c3nc(C4CC4)n[nH]3)C2)C1 [compound 690]	0.61 nM
Cn1ncc(CC2CC3(C2)CN(C(=O)N2CC4(CC(c5nc(C6CC(F)(F)C6)n[nH]5)C4)C2)C3)c1C(F)(F)F [compound 530]	13.9 nM
N#Cc1cc(C(F)(F)F)ncc1CC1CC2(C1)CN(C(=O)N1CC3(CC(c4nnc(C5CC5)[nH]4)C3)C1)C2 [compound 843]	1.07 nM
Cn1ncc(CN2CC3(C2)CN(C(=O)N2CC4(CC(c5nc(C6CC6)n[nH]5)C4)C2)C3)c1C(F)(F)F [compound 688]	8.96 nM
COC(=O)c1ccc(CC2CC3(C2)CN(C(=O)N2CC4(CC(c5nc(C6CC6)n[nH]5)C4)C2)C3)cc1OC(F)(F)F [compound 911]	0.03 nM
N=S(=O)(c1cccc(OC(F)(F)F)c1)C1CC2(C1)CN(C(=O)N1CC3(CC(c4nnc(C5CC5)[nH]4)C3)C1)C2 (stereo not shown) [compound 575]	4.02 nM
O=C(N1CC2(CC(Oc3ccc(C(F)(F)F)nc3)C2)C1)N1CC2(CC(c3nnc(C4CC4)[nH]3)C2)C1 [compound 131]	2.79 nM
O=C(N1CC2(CC(c3nnc(C4CC4)[nH]3)C2)C1)N1CC2(C1)CN(S(=O)(=O)c1cccc(OC(F)(F)F)c1)C2 [compound 87]	8.21 nM
O=C(N1CC(Oc2ccc(Cl)c(C3CC3)c2)C1)N1CC2(CC(c3nnc(C4(O)CC4)[nH]3)C2)C1 [compound 325]	14.7 nM
O=C(N1CC(C23CC(COc4cc(C(F)(F)F)ccn4)(C2)C3)C1)N1CC2(CC(c3nc(C4CC4)n[nH]3)C2)C1 [compound 942]	1.32 nM
CCOc1cc(C)nn1-c1ccc(C2CN(C(=O)N3CC4(CC(c5nnc(C6CC6)[nH]5)C4)C3)C2)cc1 [Example 449, [6-(5-cyclopropyl-4H-1,2,4-triazol-3-yl)-2-azaspiro[3.3]heptan-2-yl]-[3-[4-(5-ethoxy-3-methyl-pyrazol-1-yl)phenyl]azetidin-1-yl]methanone]	0.45 nM
O=C(N1CC(OCc2ccc(S(=O)(=O)C(F)(F)F)cc2)C1)N1CC2(CC(c3nnc(C4CC4)[nH]3)C2)C1 [compound 316]	6.21 nM
N#Cc1ccc(CC2CC3(C2)CN(C(=O)N2CC4(CC(c5nc(C6(O)CC6)n[nH]5)C4)C2)C3)c(F)c1 [compound 752]	0.29 nM
O=C(N1CC2(CC(Oc3cnc(C(F)(F)F)cn3)C2)C1)N1CC2(CC(c3nnc(C4(O)CC4)[nH]3)C2)C1 [compound 76]	38 nM
O=C(N1CC2(CC(Cc3ncc(C(F)(F)F)cn3)C2)C1)N1CC2(CC(c3nc(C4(F)CC4)n[nH]3)C2)C1 [compound 647]	0.97 nM
CS(=O)(=O)c1ccc(CC2CC3(C2)CN(C(=O)N2CC4(CC(c5nnc(C6CC6)[nH]5)C4)C2)C3)cc1 [compound 12]	0.81 nM
O=C(N1CC2(CC(Cc3nsc(C(F)(F)F)n3)C2)C1)N1CC2(CC(c3nc(C4CC4)n[nH]3)C2)C1 [compound 450]	0.24 nM
O=C(N1CC2(CC(Cn3ccc(C(F)(F)F)n3)C2)C1)N1CC2(CC(c3nc(C4(O)CC4)n[nH]3)C2)C1 [compound 673]	2 nM
